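Following 48 hours of exposure in 96-well plates, responses at five concentrations were used to interpolate endpoints linearly. The concentration for 50% growth inhibition is given as GI50. TGI: total growth inhibition.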
Key:
Assay in all cases: NCI anticancer screen, dose series, 48 h
NCI-H226 lung = test system: NCI-H226 lung
SK-MEL-2 melanoma = test system: SK-MEL-2 melanoma
NCI-H23 lung = test system: NCI-H23 lung
M14 melanoma = test system: M14 melanoma
MCF7 breast = test system: MCF7 breast
SNB-19 CNS = test system: SNB-19 CNS
HT29 colon = test system: HT29 colon
COLO 205 colon = test system: COLO 205 colon
HCT-15 colon = test system: HCT-15 colon
SK-MEL-28 melanoma = test system: SK-MEL-28 melanoma
HCC-2998 colon = test system: HCC-2998 colon
CCRF-CEM leukemia = test system: CCRF-CEM leukemia
BT-549 breast = test system: BT-549 breast
A498 renal = test system: A498 renal
MOLT-4 leukemia = test system: MOLT-4 leukemia
KM12 colon = test system: KM12 colon
U251 CNS = test system: U251 CNS
SR leukemia = test system: SR leukemia
UACC-257 melanoma = test system: UACC-257 melanoma
DU-145 prostate = test system: DU-145 prostate
OVCAR-8 ovarian = test system: OVCAR-8 ovarian
MALME-3M melanoma = test system: MALME-3M melanoma
LOX IMVI melanoma = test system: LOX IMVI melanoma
SF-539 CNS = test system: SF-539 CNS
HL-60(TB) leukemia = test system: HL-60(TB) leukemia
NCI-H460 lung = test system: NCI-H460 lung
PC-3 prostate = test system: PC-3 prostate
OVCAR-5 ovarian = test system: OVCAR-5 ovarian
SK-MEL-5 melanoma = test system: SK-MEL-5 melanoma
SW-620 colon = test system: SW-620 colon
MDA-MB-435 = test system: MDA-MB-435
OVCAR-4 ovarian = test system: OVCAR-4 ovarian
SF-268 CNS = test system: SF-268 CNS
HS 578T breast = test system: HS 578T breast
OVCAR-3 ovarian = test system: OVCAR-3 ovarian
SNB-75 CNS = test system: SNB-75 CNS
HCT-116 colon = test system: HCT-116 colon
TK-10 renal = test system: TK-10 renal
HOP-62 NSCLC = test system: HOP-62 NSCLC
IGROV1 ovarian = test system: IGROV1 ovarian
NCI/ADR-RES ovarian = test system: NCI/ADR-RES ovarian
A549 NSCLC = test system: A549 NSCLC
SF-295 CNS = test system: SF-295 CNS
UACC-62 melanoma = test system: UACC-62 melanoma
SK-OV-3 ovarian = test system: SK-OV-3 ovarian
K-562 leukemia = test system: K-562 leukemia
EKVX NSCLC = test system: EKVX NSCLC
RPMI-8226 leukemia = test system: RPMI-8226 leukemia
MDA-MB-231 breast = test system: MDA-MB-231 breast
UO-31 renal = test system: UO-31 renal
NCI-H522 lung = test system: NCI-H522 lung
786-0 renal = test system: 786-0 renal
SN12C renal = test system: SN12C renal
ACHN renal = test system: ACHN renal
T-47D breast = test system: T-47D breast
CAKI-1 renal = test system: CAKI-1 renal
RXF 393 renal = test system: RXF 393 renal

## COC(=O)C12CC(NC(=O)c3csc([C@@H](C[C@H](C(C)C)N(C)C(=O)[C@@H](NC(=O)[C@H]4CCCCN4C)C4CC4)OC(C)=O)n3)(C1)C2
NCI-H226 lung
  GI50: 0.582 µM
  TGI: > 16.7 µM
SK-MEL-2 melanoma
  GI50: 0.033 µM
  TGI: > 16.7 µM
NCI-H23 lung
  GI50: 0.0885 µM
  TGI: > 16.7 µM
M14 melanoma
  GI50: 0.00988 µM
  TGI: > 5.28 µM
MCF7 breast
  GI50: 0.00813 µM
  TGI: > 16.7 µM
SNB-19 CNS
  GI50: 0.0581 µM
  TGI: > 16.7 µM
HT29 colon
  GI50: 0.0134 µM
  TGI: > 16.7 µM
COLO 205 colon
  GI50: 0.00972 µM
  TGI: 0.201 µM
HCT-15 colon
  GI50: 0.112 µM
  TGI: > 16.7 µM
SK-MEL-28 melanoma
  GI50: 0.148 µM
  TGI: > 16.7 µM
HCC-2998 colon
  GI50: 0.0851 µM
  TGI: > 16.7 µM
CCRF-CEM leukemia
  GI50: 0.00613 µM
  TGI: > 8.79 µM
BT-549 breast
  GI50: 0.00766 µM
  TGI: 2.72 µM
A498 renal
  GI50: 0.0833 µM
  TGI: > 4.46 µM
MOLT-4 leukemia
  GI50: 0.00745 µM
  TGI: > 16.7 µM
KM12 colon
  GI50: 0.0363 µM
  TGI: > 16.7 µM
U251 CNS
  GI50: 0.0474 µM
  TGI: > 16.7 µM
SR leukemia
  GI50: 0.00193 µM
  TGI: > 16.7 µM
UACC-257 melanoma
  GI50: > 16.7 µM
  TGI: > 16.7 µM
DU-145 prostate
  GI50: 0.0154 µM
  TGI: > 16.7 µM
OVCAR-8 ovarian
  GI50: 0.0501 µM
  TGI: > 16.7 µM
MALME-3M melanoma
  GI50: 0.0357 µM
  TGI: > 16.7 µM
LOX IMVI melanoma
  GI50: 0.0144 µM
  TGI: > 16.7 µM
SF-539 CNS
  GI50: 0.00853 µM
  TGI: 0.0613 µM
HL-60(TB) leukemia
  GI50: 0.00243 µM
  TGI: 0.00876 µM
NCI-H460 lung
  GI50: 0.0472 µM
  TGI: > 16.7 µM
PC-3 prostate
  GI50: 0.0366 µM
  TGI: > 16.7 µM
OVCAR-5 ovarian
  GI50: 0.135 µM
  TGI: > 16.7 µM
SK-MEL-5 melanoma
  GI50: 0.023 µM
  TGI: 0.449 µM
SW-620 colon
  GI50: 0.0114 µM
  TGI: > 16.7 µM
MDA-MB-435
  GI50: 0.00243 µM
  TGI: 0.0197 µM
OVCAR-4 ovarian
  GI50: 0.427 µM
  TGI: > 16.7 µM
SF-268 CNS
  GI50: 0.023 µM
  TGI: > 16.7 µM
HS 578T breast
  GI50: 0.0169 µM
  TGI: > 16.7 µM
OVCAR-3 ovarian
  GI50: 0.0059 µM
SNB-75 CNS
  GI50: 0.00548 µM
  TGI: > 16.7 µM
HCT-116 colon
  GI50: 0.0228 µM
  TGI: > 16.7 µM
TK-10 renal
  GI50: 1.15 µM
  TGI: > 16.7 µM
HOP-62 NSCLC
  GI50: 0.0347 µM
  TGI: > 16.7 µM
IGROV1 ovarian
  GI50: 0.0126 µM
  TGI: > 16.7 µM
NCI/ADR-RES ovarian
  GI50: 4.69 µM
  TGI: > 16.7 µM
A549 NSCLC
  GI50: 0.101 µM
  TGI: > 16.7 µM
SF-295 CNS
  GI50: 0.0422 µM
  TGI: > 16.7 µM
UACC-62 melanoma
  GI50: 0.0153 µM
  TGI: > 16.7 µM
SK-OV-3 ovarian
  GI50: 0.0735 µM
  TGI: > 16.7 µM
K-562 leukemia
  GI50: 0.00549 µM
  TGI: > 16.7 µM
EKVX NSCLC
  GI50: 0.0696 µM
  TGI: > 16.7 µM
RPMI-8226 leukemia
  GI50: 0.00674 µM
  TGI: > 16.7 µM
MDA-MB-231 breast
  GI50: 0.0435 µM
  TGI: > 16.7 µM
UO-31 renal
  GI50: 0.614 µM
  TGI: > 16.7 µM
NCI-H522 lung
  GI50: 0.00375 µM
  TGI: 3.15 µM
786-0 renal
  GI50: 0.0394 µM
  TGI: > 16.7 µM
SN12C renal
  GI50: 0.0207 µM
  TGI: > 16.7 µM
ACHN renal
  GI50: 0.123 µM
  TGI: > 16.7 µM

## COc1ccc(NC(=O)/C=C(C)/C=C/C=C(C)/C=C/C2=C(C)CCCC2(C)C)cc1
NCI-H226 lung
  GI50: 2.83 µM
  TGI: 6.7 µM
SK-MEL-2 melanoma
  GI50: 13.3 µM
  TGI: 26.2 µM
NCI-H23 lung
  GI50: 9.78 µM
  TGI: 24.3 µM
MCF7 breast
  GI50: 3.28 µM
  TGI: 12.4 µM
SNB-19 CNS
  GI50: 14.7 µM
  TGI: 28.1 µM
HT29 colon
  GI50: 3.22 µM
  TGI: 10.2 µM
COLO 205 colon
  GI50: 3.52 µM
  TGI: 10.9 µM
HCT-15 colon
  GI50: 4.51 µM
  TGI: 18.1 µM
SK-MEL-28 melanoma
  GI50: 4.13 µM
  TGI: 14.1 µM
HCC-2998 colon
  GI50: 17.7 µM
  TGI: 33.5 µM
CCRF-CEM leukemia
  GI50: 2.05 µM
  TGI: 4.67 µM
BT-549 breast
  GI50: 27.2 µM
  TGI: 43.3 µM
A498 renal
  GI50: 19.9 µM
  TGI: 34.5 µM
MOLT-4 leukemia
  GI50: 2.34 µM
  TGI: 5.96 µM
KM12 colon
  GI50: 4.4 µM
  TGI: 14.5 µM
U251 CNS
  GI50: 4.76 µM
  TGI: 17.9 µM
SR leukemia
  GI50: 1.98 µM
  TGI: 11.9 µM
UACC-257 melanoma
  GI50: 12.3 µM
  TGI: 26.7 µM
DU-145 prostate
  GI50: 8.2 µM
  TGI: 20.3 µM
T-47D breast
  GI50: 3.75 µM
  TGI: 16.1 µM
OVCAR-8 ovarian
  GI50: 13 µM
  TGI: 38.5 µM
MALME-3M melanoma
  GI50: 38.9 µM
  TGI: 65.4 µM
LOX IMVI melanoma
  GI50: 2.93 µM
  TGI: 10.6 µM
CAKI-1 renal
  GI50: 3.28 µM
  TGI: 14.4 µM
SF-539 CNS
  GI50: 2.59 µM
  TGI: 6.15 µM
HL-60(TB) leukemia
  GI50: 2.85 µM
  TGI: 6.01 µM
NCI-H460 lung
  GI50: 12.8 µM
  TGI: 26.9 µM
PC-3 prostate
  GI50: 3.18 µM
  TGI: 11.8 µM
OVCAR-5 ovarian
  GI50: 15.9 µM
  TGI: 30.7 µM
SK-MEL-5 melanoma
  GI50: 9.06 µM
  TGI: 21.1 µM
SW-620 colon
  GI50: 2.98 µM
  TGI: 8.43 µM
MDA-MB-435
  GI50: 5.47 µM
  TGI: 19.1 µM
OVCAR-4 ovarian
  GI50: 5.85 µM
  TGI: 19 µM
SF-268 CNS
  GI50: 4.95 µM
  TGI: 17.3 µM
HS 578T breast
  GI50: 9.42 µM
  TGI: 39.8 µM
OVCAR-3 ovarian
  GI50: 2.64 µM
  TGI: 5.9 µM
SNB-75 CNS
  GI50: 4.5 µM
  TGI: 18.5 µM
HCT-116 colon
  GI50: 2.43 µM
  TGI: 6.99 µM
TK-10 renal
  GI50: 37.5 µM
  TGI: 58.2 µM
HOP-62 NSCLC
  GI50: 18.2 µM
  TGI: 34.1 µM
NCI/ADR-RES ovarian
  GI50: 13.9 µM
  TGI: 31.1 µM
RXF 393 renal
  GI50: 12.8 µM
  TGI: 26.2 µM
A549 NSCLC
  GI50: 14.9 µM
  TGI: 30.7 µM
SF-295 CNS
  GI50: 13.3 µM
  TGI: 27.2 µM
UACC-62 melanoma
  GI50: 10.7 µM
  TGI: 22.9 µM
SK-OV-3 ovarian
  GI50: 17 µM
  TGI: 30.7 µM
K-562 leukemia
  GI50: 2.41 µM
  TGI: 7.23 µM
EKVX NSCLC
  GI50: 14.9 µM
  TGI: 29.2 µM
RPMI-8226 leukemia
  GI50: 2.33 µM
  TGI: 7.76 µM
MDA-MB-231 breast
  GI50: 4.25 µM
  TGI: 15.1 µM
UO-31 renal
  GI50: 10.8 µM
  TGI: 25.4 µM
786-0 renal
  GI50: 14.4 µM
  TGI: 28.7 µM
SN12C renal
  GI50: 11.2 µM
  TGI: 23.9 µM
ACHN renal
  GI50: 3.21 µM
  TGI: 12.4 µM

Source: PubChem BioAssay (NCI)
